Experimental data reported in US20170299579A1, “VITELLINE MEMBRANE AS A MODEL OF THE BLOOD BRAIN BARRIER” (priority 2016, published 2017).
Like-named read-outs stand apart in the source and are kept apart here.

Experiments:
[1] = Spectrophotometric absorbance of albumen of decalcified quail eggs after incubation with agent; type: in vitro ADME
Procedure: (§1) An Ultrospect III spectrophotometer (Pharmacia, Cambridge, England) was recently calibrated by Spectrofuge Corporation of North Carolina, Inc. (Durham, N.C.). Blank quartz cuvettes were selected with the smallest deviation in absorbance. Standard solutions of 2.6×10^−3M acetaminophen and 4.4×10^−3 2-cholorprocaine were prepared. Approximate peak ultraviolet wavelengths were determined with the standard solutions in methanol and PBS. Fine adjustment of the optimum wavelength was performed by retrofit of Beer's law plots of the standards and dilutions. Optimum absorbance wavelengths for acetaminophen and 2-chloroprocaine were 300 nm 329 nm, respectively. Optimum absorbance wavelengths for acetaminophen and 2-choroprocaine dissolve in PBS were 319 nm and 340, respectively. (Table 3)
(§2) The decalcified eggs were soaked in solutions for 2 or 12 hours and then placed in a home freezer prior to analysis. The quail eggs were opened with a razor knife and the denatured albumen and yolk were separated. In most samples the vitelline membrane could be easily separated from the yolk. Samples of the denatured albumen and yolk were dissolved in 5 ml of methanol or PBS and centrifuged at 2700 rpm for 5 minutes. The supernatants were then clarified through a 0.2 micrometer filter (MILLEX-FG, Merck Millipore, Ltd). Clarification of the PBS samples was more difficult than the methanol samples. The clear filtrate was placed in quartz cuvettes. Any air bubbles were eliminated and the samples were analyzed in the spectrophotometer. (Tables 4&5)

[2] = Permeability of vitelline membrane of decalcified quail eggs (agent reaching the yolk), model of the human blood brain barrier
[3] = Spectrophotometric absorbance of yolk of decalcified quail eggs after incubation with agent; type: in vitro ADME
Procedure: as §1, §2

[4] = not told
[5] = not told; remark: listed apart in the source
[6] = in PBS, 4.4 × 10^−2 m/l, 340 nm, 12 hours
[7] = in methanol, 4.4 × 10^−2 m/L, 329 nm, 2 hours
[8] = in methanol, 4.4 × 10^−2 m/L, 329 nm, 12 hours

| Structure (SMILES) | Permeability (vitelline membrane) [4] | Permeability (outer and inner membrane) [5] | also measured |
| --- | --- | --- | --- |
| CCN(CC)CCOC(=O)c1ccc(N)cc1Cl [2-Chloroprocaine] |  |  | Albumen (abs) [1, 6]: 0.48 abs; Albumen (abs) [1, 7]: 1.86 abs; Albumen (abs) [1, 8]: 2.52 abs; Permeability (vitelline membrane) ([2]; agent in PBS, 2-Chloroprocaine 4 × 10^−2 M, Acetaminophen 2.6 × 10^−1 M, incubation time 12 hours): +; Permeability (vitelline membrane) ([2]; agent in methanol, 2-Chloroprocaine 4 × 10−2 M, Acetaminophen 2.6 × 10^−1 M, incubation time 2 & 12 hours): +; Crossing of the vitelline membrane ([2]; spectroscopic analysis): crossed the vitelline membrane; Yolk (abs) [3, 6]: 1.04 abs; Yolk (abs) [3, 7]: 1.37 abs; Yolk (abs) [3, 8]: 1.71 abs |
| CC(=O)Nc1ccc(O)cc1 [Acetaminophen] | + | + | Crossing of the vitelline membrane [4]: crossed the vitelline membrane; Albumen (abs) ([1]; quail, 2 h): 2.85 abs; Yolk (abs) ([3]; quail, 2 h): 2.40 abs |
| Cc1cc(C2(c3ccc(O)c(C)c3)OS(=O)(=O)c3ccccc32)ccc1O [Creosol red] | − | + |  |
| CCO [Ethanol] | + | + | Crossing of the vitelline membrane [4]: crossed the vitelline membrane |
| CCOCC [Ether, diethyl ether] |  | + |  |
| CCN(Cc1cccc(S(=O)(=O)[O-])c1)c1ccc(C(=C2C=CC(=[N+](CC)Cc3cccc(S(=O)(=O)[O-])c3)C=C2)c2ccccc2S(=O)(=O)[O-])cc1.[Na+].[Na+] [FD&C Blue #1] | − | + |  |
| O=C1OC2(c3ccc(O)cc3Oc3cc(O)ccc32)c2ccccc21 [Fluorescein] | − | + |  |
| CN(C)c1ccc(C(=C2C=CC(=[N+](C)C)C=C2)c2ccccc2)cc1 [Malachite green] |  |  | Permeability (vitelline membrane) ([2]; 0.01M, incubation time 2 hours): − |
| CN(C)c1ccc(/N=N/c2ccccc2C(=O)O)cc1 [Methyl red] | − | + |  |
| [K+].[K+].[O]=[Cr](=[O])([O-])[O][Cr](=[O])(=[O])[O-] [Potassium dichromate] |  |  | Permeability (vitelline membrane) ([2]; 0.01M, incubation time 2 hours): − |
| C=C[C@H]1C[N@@]2CC[C@H]1C[C@H]2[C@H](O)c1ccnc2ccc(OC)cc12 [Quinine] | − | + |  |
